Legend:
[1] = system: LNCaP prostate cancer cells; details: literature; cited from earlier work
[2] = system: TNF-α; test: ELISA of TNF-α in PMA/LPS-treated THP-1 cells; format: cell-based, human; details: THP-1, PMA then LPS 100 ng/ml 24 hours, 5 uM compound added 2 hours before LPS
Protocol: (§1) Human monocytes (THP-1, ATCC) were cultured in RPMI 1640 media supplemented with HEPES buffer (10 mM), sodium pyruvate (1 mM), glucose (4.5 g/L), fetal bovine serum (10%), penicillin (100 U/mL), streptomycin (100 μg/mL), and 2-mercaptoethanol (0.05 mM). THP-1 cells were treated with PMA (100 ng/ml) for 48 hours and then washed and rested for 24 hours in PMA-free media. These cells were treated with LPS (100 ng/ml) for 24 hours in the presence or absence of 5 uM of […] compounds (added 2 hours before LPS). Cell culture supernatants were collected and IL-1β (cat. No DLB50, R&D Systems), TNF-α (cat. no. DTA00D, R&D Systems) and IL-6 (cat. No D6050, R&D Systems) protein levels were evaluated by ELISA assay.

[3] = system: IL-6; test: ELISA of IL-6 in PMA/LPS-treated THP-1 cells; format: cell-based, human; details: THP-1, PMA then LPS 100 ng/ml 24 hours, 5 uM compound added 2 hours before LPS
Protocol: as §1

[4] = system: AsPC-1 pancreatic cancer tumor cells; test: Nile red lipid content of AsPC-1 xenograft tumors; format: in vivo, mice; details: 100 mg/kg i.p., tumors collected 24 days post-treatment
Protocol: Tumors derived from the mice treated by intraperitoneal injection with GS27 at 100 mg/kg were collected 24 days post-treatment. The tumors were evaluated for their lipid content using the dye nile red as a fluorescent vital stain for the detection of intracellular lipid droplets by fluorescence microscopy and flow cytofluorometry, as described previously (Greenspan, Peter et al., J Cell Biol, 1985, 100(3):965-973). […] Quantification of the data is shown in the bar graph.

[5] = in vivo; details: female, NOD SCID (NOD.CB17-Prkdc^scid/J), mouse, ip
Excerpt: The guidelines of the NCI DTP (National Cancer Institute, Developmental Therapeutics Program, NIH, USA) for acute toxicity testing (DOI: 10.1021/acs.biomac.8b00959) were followed to determine Maximum Tolerated Dose (MTD) of GS27.
For the MTD studies, NOD.CB 17-Prkdc^scid/J mice (also known as NOD SCID mice) were used. All animals for in vivo experiments were kept under specific pathogen-free (SPF) conditions in Type II Long cages, at the experimental unit of our department (Department of Pharmacology, EL42-BIO_Exp03, protocol license 5542/22806-30/11/2015) in a climate-regulated environment (21±1° C.; 50-55% relative humidity) under a 12 h/12 h (lights on at 7:00 AM) light/dark cycle and allowed ad libitum food and water. Female and male mice, 6-8 weeks old, were used in the studies described here. GS27 compound was administered to 15 female mice at two different doses. GS at either 100 or 50 mg/kg was administered in a single dose via i.p. injection in pre-weighed mice. One group of five mice received the carrier and served as controls. […] Mice were also weighed twice weekly for two weeks.

[6] = system: p65/NFKB (S536); test: ELISA of p65/NFKB (S536) in PANC-1 cells; format: cell-based, human; details: rIGF1, 5 μM, 24 hours
Protocol: ELISA assay was used to evaluate the effect of GS compounds on protein activity levels in PANC-1 cancer cells. PANC-1 cells were serum-starved overnight and then treated with rIGF1 (100 ng/mL) for 24 hours, with or without GS27 (5 μM). The levels of the following proteins were evaluated by ELISA assay: a) p70 S6 (T389) (cat no. 54164C, Cell Signaling); b) pAKT (S473), (cat no. 80895, Cell Signaling); c) pACLY (S455), (cat no. okag1672, Avivasysbio); d) pAMPK (T172) (cat no. 7959C, Cell Signaling) and e) p65/NFKB (S536), (cat no. 7173, Cell Signaling).
PANC-1 is a human pancreatic ductal adenocarcinoma cell line derived from the carcinoma of a person.
The molecular mechanism of action of GS27, a compound that has exerted potent anti-cancer activity in different cancer cell lines including pancreatic cancer cells, was investigated. Oleacein has been implicated to have anti-inflammatory and metabolic effects, thus the potential effects of GS27 in different metabolic and inflammatory pathways were evaluated. Specifically, the protein levels of p70 S6 (T389), pAKT (S473), pACLY (S455), pAMPK (T172) and p65/NFKB (S536) were evaluated by ELISA assay in PANC-1 pancreatic cancer cells treated with 5 μM GS27. GS27 reduced p70 S6 and AKT phosphorylation levels, while it increased AMPK phosphorylation.

[7] = system: Raw 264.7 cells; test: Raw 264.7 macrophage cell growth (trypan blue count); format: cell-based, BALB/C mice; details: 1, 10, 25, 50, 100, 200 μM, 24 h
Protocol: The effect of GS27 on the growth of Raw 264.7 cells was evaluated to examine GS27 potential toxicity effects. RAW 264.7 cells are macrophage-like Abelson leukemia virus transformed cell line derived from BALB/C mice. The cell line was obtained from ATCC.
RAW 264.7 cells were maintained at 37° C., in a 5% CO2 and 100% humidity incubator and grown in suspension, in non-adherent flasks, in RPMI 1640-Glutamax to which was added 50 U/mL of penicillin, 50 μg/mL streptomycin and 10% (v/v) fetal bovine serum (FBS). These cells were exposed to increasing doses of GS27 (1, 10, 25, 50, 100, 200 μM) for 24 h and after the exposure period, the cells were harvested with trypsin-EDTA and trypan blue was applied to the cell suspension. Non-colored and blue cells were counted while using an automated cell counter.

[8] = system: AsPC-1 pancreatic cancer tumor; test: AsPC-1 xenograft mouse model; format: in vivo, NOD/SCID mice; details: 100 mg/kg i.p. daily for 5 days
Protocol: The effect of GS27 on pancreatic cancer tumor growth in mice was evaluated in a AsPC-1 xenograft mouse model.
Xenograft tumors were generated by injecting AsPC-1 pancreatic cancer cells (0.5×10^6) into the right flank of male NOD/SCID mice (n=5/group). All mice developed tumors in 10 days with size of approximately 100 mm3. For each experiment, mice were randomly distributed into equal groups (5 mice per group) that were untreated or treated by intraperitoneal injections daily for 5 days with 100 mg/kg GS27. Tumor volume (average, SD) and the weight of the animals were evaluated until 24 days post-treatment.

## C/C=C(/C=O)[C@@H](CC=O)CC(=O)OCCc1ccc(O)cc1 [GS19, (3S,4E)-4-formyl-3-(2-oxoethyl)-4-hexenoic acid 2-(4-hydroxyphenyl)ethyl ester, reference compound]
[1]
  concentration found to reduce LNCaP prostate cancer cell growth: 500 µM

## C/C=C(/C=O)[C@@H](CC=O)CC(=O)OCCOc1ccccc1 [GS24, (3S,4E)-4-formyl-3-(2-oxoethyl)-4-hexenoic acid 2-phenoxyethyl ester]
[2]
  TNF-α protein levels: reducing substantially
[3]
  IL-6 protein levels: effective for reducing

## C/C=C(/C=O)[C@@H](CC=O)CC(=O)SCCc1ccccc1 [GS27, S-phenethyl (3S,4E)-4-formyl-3-(2-oxoethyl)hex-4-enethioate]
[4]
  reduction in the lipid content of AsPC-1 tumor cells: 55%
[5]
  MTD at 2 weeks: > 200 mg/kg
[5]; 2 weeks
  dose well tolerated for two weeks: up to 100 mg/kg
[6]
  p65/NFKB activity: inhibiting
[7]
  effect on Raw 264.7 cell growth: no effect
[8]
  weight of the mice: did not affect
[8]; until 24 days post-treatment
  inhibition of AsPC-1 pancreatic cancer tumor growth: 34%

— patent US12414960B2, “Analogues of oleuropein and oleacein and uses thereof” (Attica Sciences Ltd., priority 2020, dated 2025)
